In brackets after ≈: the same amount, converted by molar mass.
Legend:
Format in all cases: physicochemical
[1] = Competitive equilibration and water activity experiments; settings: water activity 0 to 0.4 at 5° C. and 0 to 0.6 at 25° C., equilibration 5 days
Description: Relative stability of the hydrate Pattern A and the anhydrate Pattern B was investigated by competitive equilibration and water activity experiments at 5° C. and 25° C.

[2] = Solubility at 37° C. in buffers and biorelevant media, XRPD of residual solid; settings: for solubility at 2 h / solubility at 24 h: thermodynamic from solid
Summary of the method: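 Solids equivalent to 10 mg anhydrous free form were stirred in 5 mL of each medium (pH 1.2 HCl, pH 4.5 acetate, pH 6.8 phosphate, water, FaSSGF, FaSSIF-v1, FeSSIF-v1, HPMC/Pluronic in acetate) at 37 °C, 400 rpm. Sampled at 2 h and 24 h; supernatant analyzed by HPLC plus pH, 24 h residual solid by XRPD.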

[3] = Bulk stability (solid state, 1 week; HPLC, XRPD, IC, color); set-up: key to CL (color): A: no change of color; B: slight discoloration; C: medium discoloration; D: strong discoloration; settings: for Bulk (HPLC) Purity / CL (color): Solid state
Description: Bulk stability of free form Pattern B was evaluated at 25° C./92.5% RH in an open container, at 40° C./75% RH in an open container and at 60° C. in a tight container over 1 week.

[4] = Hygroscopicity by dynamic vapor sorption (DVS) at 25° C.; settings: for Desorp. (%) / Sorp. (%): DVS 25° C.
Summary of the method: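 About 5–10 mg sample was cycled 40-0-95-0-40% RH in 10% steps at 25 °C with water vapour. Equilibrium criterion was 0.002 %/min dm/dt, with a minimum 60 min stability duration and a maximum 360 min per stage.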

[5] = aqueous buffer, pH 4.5 acetate buffer (50 mM), 37° C.
[6] = aqueous buffer, pH 6.8 phosphate buffer (50 mM), 37° C.
[7] = aqueous with cosolvent or surfactant or cyclodextrin, 2% HPMC + 1% Pluronic F68 in pH 4.5 acetate buffer (50 mM), 37° C.
[8] = fassgf or other biorelevant, FaSSGF, pH 1.6, 37° C.
[9] = simulated gastric fluid, pH 1.2 HCl buffer, 37° C.
[10] = 25° C./92.5% RH open, 40° C./75% RH open, 60° C. tight container

For `CCOc1cc(C(=O)N(C)Cc2cnc(CO)c3cn[nH]c23)ccc1-c1cc(F)cc(F)c1` [Free form Pattern A, 2-ethoxy-3′,5′-difluoro-N-((4-(hydroxymethyl)-1H-pyrazolo[4,3-c]pyridin-7-yl)methyl)-N-methyl-[1,1′-biphenyl]-4-carboxamide], the Form conversion [1] was “converted to anhydrate Pattern B”, the “pH of supernatant at 24 h” value ([2]; 2% HPMC + 1% Pluronic F68 in pH 4.5 acetate buffer (50 mM), 37° C.) was “(4.6)” and the “pH of supernatant at 24 h” value ([2]; FaSSGF, pH 1.6, 37° C.) was “(1.6)”. For the same compound, the “pH of supernatant at 24 h” value ([2]; FaSSIF-v1, pH 6.5, 37° C.) was “(6.5)”, the “pH of supernatant at 24 h” value ([2]; FeSSIF-v1, pH 5.0, 37° C.) was “(5.0)” and the “pH of supernatant at 24 h” value ([2]; Water, 37° C.) was “(6.3)”. The solubility at 2 h [2, 5] was 14.4 µg/mL (≈ 31.8 µM), the solubility at 24 h [2, 5] was 13.7 µg/mL (≈ 30.3 µM) and the solubility at 2 h [2, 6] was 4.7 µg/mL (≈ 10.4 µM). The solubility at 24 h [2, 6] was 4.3 µg/mL (≈ 9.5 µM), the solubility at 2 h [2, 7] was 24.4 µg/mL and the solubility at 24 h [2, 7] was 34.3 µg/mL. The solubility at 2 h [2, 8] was 746 µg/mL (≈ 1650 µM), the solubility at 24 h [2, 8] was 616 µg/mL (≈ 1360 µM) and the “pH of supernatant at 24 h” value ([2]; pH 1.2 HCl buffer, 37° C.) was “(1.2)”. The “pH of supernatant at 24 h” value ([2]; pH 4.5 acetate buffer (50 mM), 37° C.) was “(4.5)”, the “pH of supernatant at 24 h” value ([2]; pH 6.8 phosphate buffer (50 mM), 37° C.) was “(6.8)” and the solubility at 2 h [2, 9] was 425 µg/mL (≈ 940 µM). For the same compound, the solubility at 24 h [2, 9] was 402 µg/mL (≈ 888 µM), the solubility at 2 h ([2]; FaSSIF-v1, pH 6.5, 37° C.) was 14.5 µg/mL (≈ 32 µM) and the solubility at 24 h ([2]; FaSSIF-v1, pH 6.5, 37° C.) was 17.7 µg/mL (≈ 39.1 µM). The solubility at 2 h ([2]; FeSSIF-v1, pH 5.0, 37° C.) was 142 µg/mL (≈ 314 µM), the solubility at 24 h ([2]; FeSSIF-v1, pH 5.0, 37° C.) was 168 µg/mL (≈ 372 µM) and the solubility at 2 h ([2]; Water, 37° C.) was 5.6 µg/mL (≈ 12.4 µM). The solubility at 24 h ([2]; Water, 37° C.) was 4.6 µg/mL (≈ 10.2 µM), the “Bulk stability, chemical and physical” value [3, 10] was “chemically and physically stable” and the “Degradation by HPLC” value [3, 10] was “no obvious degradation”. For the same compound, the “Form change by XRPD” value [3, 10] was “no form change”, the “Bulk (HPLC) Purity” value ([3]; 25° C./92.5% RH, open) was 97.9% and the “CL (color)” value ([3]; 25° C./92.5% RH, open) was “A”. The “Bulk (HPLC) Purity” value ([3]; 40° C./75% RH, open) was 97.7%, the “CL (color)” value ([3]; 40° C./75% RH, open) was “A” and the “Bulk (HPLC) Purity” value ([3]; 60° C., closed) was 97.8%. For the same compound, the “CL (color)” value ([3]; 60° C., closed) was “A”, the “Desorp. (%)” value ([4]; 0% RH, 1st desorption) was 0.01% and the “Sorp. (%)” value ([4]; 0% RH, 2nd sorption) was 0.01%. The “Desorp. (%)” value ([4]; 10% RH, 1st desorption) was 3.59%, the “Sorp. (%)” value ([4]; 10% RH, 2nd sorption) was 0.09% and the “Desorp. (%)” value ([4]; 20% RH, 1st desorption) was 3.74%. For the same compound, the “Sorp. (%)” value ([4]; 20% RH, 2nd sorption) was 3.45%, the “Desorp. (%)” value ([4]; 30% RH, 1st desorption) was 3.79% and the “Sorp. (%)” value ([4]; 30% RH, 2nd sorption) was 3.78%. The “Desorp. (%)” value ([4]; 40% RH, 1st desorption) was 3.83%, the “Sorp. (%)” value ([4]; 40% RH, 1st sorption) was 3.87% and the “Desorp. (%)” value ([4]; 40% RH, 2nd desorption) was 3.83%. The “Sorp. (%)” value ([4]; 40% RH, 2nd sorption) was 3.82%, the “Desorp. (%)” value ([4]; 50% RH, 1st desorption) was 3.93% and the “Sorp. (%)” value ([4]; 50% RH, 1st sorption) was 3.90%. For the same compound, the “Desorp. (%)” value ([4]; 50% RH, 2nd desorption) was 3.92%, the “Sorp. (%)” value ([4]; 50% RH, 2nd sorption) was 3.87% and the “Desorp. (%)” value ([4]; 60% RH, 1st desorption) was 4.00%. For the same compound, the “Sorp. (%)” value ([4]; 60% RH, 1st sorption) was 3.94%, the “Desorp. (%)” value ([4]; 60% RH, 2nd desorption) was 3.99% and the “Sorp. (%)” value ([4]; 60% RH, 2nd sorption) was 3.93%. The “Desorp. (%)” value ([4]; 70% RH, 1st desorption) was 4.07%, the “Sorp. (%)” value ([4]; 70% RH, 1st sorption) was 4.01% and the “Desorp. (%)” value ([4]; 70% RH, 2nd desorption) was 4.06%. For the same compound, the “Sorp. (%)” value ([4]; 70% RH, 2nd sorption) was 4.00%, the “Desorp. (%)” value ([4]; 80% RH, 1st desorption) was 4.17% and the “Sorp. (%)” value ([4]; 80% RH, 1st sorption) was 4.12%. The “Desorp. (%)” value ([4]; 80% RH, 2nd desorption) was 4.15%, the “Sorp. (%)” value ([4]; 80% RH, 2nd sorption) was 4.11% and the “Desorp. (%)” value ([4]; 90% RH, 1st desorption) was 4.35%. The “Sorp. (%)” value ([4]; 90% RH, 1st sorption) was 4.33%, the “Desorp. (%)” value ([4]; 90% RH, 2nd desorption) was 4.33% and the “Sorp. (%)” value ([4]; 90% RH, 2nd sorption) was 4.30%. The “Desorp. (%)” value ([4]; 95% RH, 1st desorption) was 4.61%, the “Sorp. (%)” value ([4]; 95% RH, 1st sorption) was 4.61% and the “Desorp. (%)” value ([4]; 95% RH, 2nd desorption) was 4.58%. For the same compound, the “Sorp. (%)” value ([4]; 95% RH, 2nd sorption) was 4.58%, the “Water absorbed from 40% RH to 80% RH” value ([4]; DVS at 25° C.) was “It absorbed 0.3%” and the “XRPD after DVS test” value ([4]; DVS at 25° C.) was “No form change”.

— patent publication US20250084080A1, “CRYSTALLINE AND SALT FORMS OF AN NLRP3 INHIBITOR” (BioAge Labs, Inc., priority 2023, published 2025)
